Values joined by “and” are separate entries in the source; they are usually repeats but may differ in a detail not shown here. Identical values can stand only once. Toxic doses and inconclusive results are not listed.
System: nude mice, LOX melanoma ip, survival T/C
Experiment: NCI In Vivo Anticancer Drug Screen. Data for tumor model Human Amelanotic Melanoma (LOX) (intraperitoneal) in NU/NU BALB/C (nude) mice
Settings: endpoint: median survival time, schedule: Q04DX003 (ip), higher = longer survival
Method: The antitumor activity of compounds was measured in mice bearing transplantable tumors. Survival or tumor size were measured and the results are expressed as the measurement made in the treated group (T) divided by the measurement made in the vehicle treated control group (C). The tumor model used in this assay is Human Amelanotic Melanoma (LOX) (intraperitoneal) in NU/NU BALB/C (nude) mice

[1] = dose: 12.5 mg/kg/injection, vehicle: saline with Tween-80
[2] = dose: 25.0 mg/kg/injection, vehicle: saline with Tween-80
[3] = dose: 50.0 mg/kg/injection, vehicle: saline with Tween-80
[4] = dose: 100.0 mg/kg/injection, vehicle: saline with Tween-80
[5] = dose: 200.0 mg/kg/injection, vehicle: saline with Tween-80
[6] = dose: 400.0 mg/kg/injection, vehicle: saline with Tween-80
[7] = dose: 50.0 mg/kg/injection, vehicle: saline

## Nc1nc(Br)nc2c1ncn2C1CC(O)C(CO)O1 (stereo not drawn)
[1]
  T/C: 99 % of control
[2]
  T/C: 106 % of control
[3]
  T/C: 104 % of control
[4]
  T/C: 104 % of control
[5]
  T/C: 93 % of control

## S=C(N/N=C1/CCCC/C1=N/NC(=S)N1CCOCC1)N1CCOCC1
dose: 3.13 mg/kg/injection, vehicle: saline with Tween-80
  T/C: 116 % of control
dose: 6.25 mg/kg/injection, vehicle: saline with Tween-80
  T/C: 117 % of control
[1]
  T/C: 110 % of control

## CCOC(=O)NC1CCc2cc(OC)c(OC)c(OC)c2-c2ccc(OC)c(=O)cc21 (stereo not drawn)
dose: 2.5 mg/kg/injection, vehicle: Klucel (hydroxypropylcellulose) (HPC)
  T/C: 154 % of control
dose: 5.0 mg/kg/injection, vehicle: Klucel (hydroxypropylcellulose) (HPC)
  T/C: 154 % of control
dose: 10.0 mg/kg/injection, vehicle: Klucel (hydroxypropylcellulose) (HPC)
  T/C: 178 % of control
dose: 20.0 mg/kg/injection, vehicle: Klucel (hydroxypropylcellulose) (HPC)
  T/C: 214 % of control

## CCOC(=O)C1=C(Nc2ccc(OC)cc2)C(N)=NC1=N
dose: 50.0 mg/kg/injection, vehicle: suspension in saline
  T/C: 107 % of control
dose: 100.0 mg/kg/injection, vehicle: suspension in saline
  T/C: 107 % of control

## COc1cc2c(c(OC)c1OC)-c1ccc(OC)c(=O)cc1[C@@H](NC(C)=O)CC2
dose: 0.13 mg/kg/injection, vehicle: saline
  T/C: 162 % of control
dose: 0.25 mg/kg/injection, vehicle: saline
  T/C: 150 % of control and 179 % of control and 180 % of control
dose: 0.5 mg/kg/injection, vehicle: saline
  T/C: 171 % of control and 197 % of control and 220 % of control
dose: 1.0 mg/kg/injection, vehicle: saline
  T/C: 229 % of control and 232 % of control and 280 % of control
dose: 2.0 mg/kg/injection, vehicle: saline
  T/C: 189 % of control and 222 % of control and 262 % of control
dose: 4.0 mg/kg/injection, vehicle: saline
  T/C: 268 % of control

## O=C(CN1CCOCC1)Nc1nc(-c2ccc(Cl)cc2)cs1
dose: 75.0 mg/kg/injection, vehicle: DMSO
  T/C: 119 % of control
dose: 150.0 mg/kg/injection, vehicle: DMSO
  T/C: 112 % of control
dose: 300.0 mg/kg/injection, vehicle: DMSO
  T/C: 88 % of control
dose: 600.0 mg/kg/injection, vehicle: DMSO
  T/C: 95 % of control
dose: 1200.0 mg/kg/injection, vehicle: DMSO
  T/C: 92 % of control

## CCCCCCCC(=O)O[C@H]1[C@H]2[C@@H](CC1(C)C)C(=O)[C@]13O[C@H]1C(=O)[C@]1(CO1)[C@]23C
dose: 2.5 mg/kg/injection, vehicle: saline with Tween-80
  T/C: 115 % of control
dose: 5.0 mg/kg/injection, vehicle: saline with Tween-80
  T/C: 92 % of control
dose: 10.0 mg/kg/injection, vehicle: saline with Tween-80
  T/C: 90 % of control
dose: 20.0 mg/kg/injection, vehicle: saline with Tween-80
  T/C: 103 % of control
dose: 40.0 mg/kg/injection, vehicle: saline with Tween-80
  T/C: 92 % of control

## Cc1cc2c(=O)cc(-c3ccccc3)oc2c(C(=O)O)c1C
dose: 62.5 mg/kg/injection, vehicle: saline with Tween-80
  T/C: 95 % of control
dose: 125.0 mg/kg/injection, vehicle: saline with Tween-80
  T/C: 94 % of control
dose: 250.0 mg/kg/injection, vehicle: saline with Tween-80
  T/C: 90 % of control

## Cc1ccoc1
[2]
  T/C: 94 % of control
[3]
  T/C: 95 % of control
[4]
  T/C: 102 % of control
[5]
  T/C: 95 % of control
[6]
  T/C: 96 % of control

## Nc1ccc2ccc(N)cc2c1
[2]
  T/C: 102 % of control
[3]
  T/C: 101 % of control
[4]
  T/C: 102 % of control
[5]
  T/C: 91 % of control
[6]
  T/C: 101 % of control

## COc1cccc2c1C(=O)C1=C(C2=O)c2c(O)cc(CO)cc2C(O)C1O (stereo not drawn)
dose: 6.25 mg/kg/injection, vehicle: saline + Tween-80 + alcohol
  T/C: 98 % of control
dose: 12.5 mg/kg/injection, vehicle: saline + Tween-80 + alcohol
  T/C: 109 % of control
dose: 25.0 mg/kg/injection, vehicle: saline + Tween-80 + alcohol
  T/C: 112 % of control
dose: 50.0 mg/kg/injection, vehicle: saline + Tween-80 + alcohol
  T/C: 109 % of control

## CN(C)CCCN=c1c2ccccc2n(C)c2[nH]c(=O)n(C)c(=O)c12
dose: 12.5 mg/kg/injection, vehicle: saline
  T/C: 112 % of control
[7]
  T/C: 107 % of control

## C=COC(=O)C(Cc1ccccc1)NC(=O)OCc1ccccc1 (stereo not drawn)
dose: 7.5 mg/kg/injection, vehicle: saline with Tween-80
  T/C: 97 % of control
dose: 15.0 mg/kg/injection, vehicle: saline with Tween-80
  T/C: 101 % of control
dose: 30.0 mg/kg/injection, vehicle: saline with Tween-80
  T/C: 105 % of control
dose: 60.0 mg/kg/injection, vehicle: saline with Tween-80
  T/C: 95 % of control
dose: 75.0 mg/kg/injection, vehicle: saline with Tween-80
  T/C: 89 % of control
dose: 120.0 mg/kg/injection, vehicle: saline with Tween-80
  T/C: 104 % of control

## NC(CNC(=O)CBr)C(=O)O (stereo not drawn)
dose: 12.5 mg/kg/injection, vehicle: water
  T/C: 97 % of control
dose: 25.0 mg/kg/injection, vehicle: water
  T/C: 93 % of control
dose: 50.0 mg/kg/injection, vehicle: water
  T/C: 98 % of control
dose: 100.0 mg/kg/injection, vehicle: water
  T/C: 90 % of control
dose: 200.0 mg/kg/injection, vehicle: water
  T/C: 88 % of control

## CC1c2ccccc2CC(CCN(C)C)c2ccccc21 (stereo not drawn)
[1]
  T/C: 109 % of control
[2]
  T/C: 114 % of control
[3]
  T/C: 114 % of control
[4]
  T/C: 109 % of control

## CN=NN(C)C(=O)NC
dose: 25.0 mg/kg/injection, vehicle: saline
  T/C: 154 % of control
[7]
  T/C: 188 % of control
dose: 100.0 mg/kg/injection, vehicle: saline
  T/C: 230 % of control

## COc1ccc2oc(-c3ccc(Cl)cc3)c(N3CCN(C)CC3)c2c1
dose: 75.0 mg/kg/injection, vehicle: saline
  T/C: 91 % of control
dose: 150.0 mg/kg/injection, vehicle: saline
  T/C: 118 % of control
dose: 300.0 mg/kg/injection, vehicle: saline
  T/C: 90 % of control

## CN(C)CN1C(=O)S/C(=C2\C(=O)N(CN(C)C)c3ccccc32)C1=O
dose: 50.0 mg/kg/injection, vehicle: Klucel (hydroxypropylcellulose) (HPC)
  T/C: 119 % of control and 101 % of control
dose: 100.0 mg/kg/injection, vehicle: Klucel (hydroxypropylcellulose) (HPC)
  T/C: 110 % of control and 97 % of control
dose: 200.0 mg/kg/injection, vehicle: Klucel (hydroxypropylcellulose) (HPC)
  T/C: 108 % of control and 97 % of control

## CCCCCCSc1nc(COC(=O)NC)c(COC(=O)NC)n1C
dose: 16.85 mg/kg/injection, vehicle: saline
  T/C: 102 % of control
dose: 33.7 mg/kg/injection, vehicle: saline
  T/C: 90 % of control
dose: 67.5 mg/kg/injection, vehicle: saline
  T/C: 93 % of control
dose: 135.0 mg/kg/injection, vehicle: saline
  T/C: 107 % of control
dose: 270.0 mg/kg/injection, vehicle: saline
  T/C: 123 % of control

Source: PubChem BioAssay AID280 (DTP/NCI, 2004)
